PubChem BioAssay (NCI)
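Assay format: 96-well plates, 48-hour exposure. At the GI50, growth is halved. TGI: concentration producing complete growth inhibition.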

How the values were obtained:
Assay in all cases: NCI anticancer screen, dose series, 48 h
[1] = tested on: MOLT-4 leukemia
[2] = tested on: MDA-MB-435
[3] = tested on: MDA-MB-231 breast
[4] = tested on: MDA-N
[5] = tested on: HOP-62 NSCLC
[6] = tested on: DMS 273 small cell lung
[7] = tested on: M19-MEL melanoma
[8] = tested on: HOP-18 NSCLC
[9] = tested on: KM20L2 colon
[10] = tested on: OVCAR-4 ovarian
[11] = tested on: EKVX NSCLC
[12] = tested on: DMS 114 small cell lung
[13] = tested on: SNB-78 CNS

N=C(N)c1ccc(-c2ccc(-c3cc(Cl)cc(Cl)c3)o2)nc1
GI50 [1]: 2.46 µM
TGI [1]: 5.05 µM
GI50 [2]: 1.76 µM
TGI [2]: 3.38 µM
GI50 [3]: 1.65 µM
TGI [3]: 3.3 µM

O=C(N/N=C(/c1ccccc1)C(F)(F)F)c1ccncc1
TGI [4]: > 100 µM
TGI [1]: > 100 µM
TGI [5]: > 100 µM
TGI [2]: > 100 µM

CCCc1[nH]c(SCCCCCCCCSc2nc(-c3ccc(F)cc3)c(CCC)[nH]2)nc1-c1ccc(F)cc1
TGI [6]: > 100 µM
TGI [1]: > 100 µM
TGI [7]: > 100 µM
TGI [8]: > 100 µM
TGI [9]: > 100 µM
TGI [10]: 95.4 µM
TGI [5]: > 100 µM
TGI [11]: 52.5 µM
TGI [12]: > 100 µM
TGI [13]: > 100 µM

CC1SC(c2ccccc2)N(CCc2cccs2)C1=O (stereo not given)
GI50 [1]: 2.98 µM
TGI [1]: 12.4 µM
GI50 [10]: 2.45 µM
TGI [10]: 13 µM
GI50 [5]: 11 µM
TGI [5]: 25.9 µM
GI50 [2]: 3.63 µM
TGI [2]: 16.7 µM
GI50 [11]: 2.77 µM
TGI [11]: 12.7 µM
GI50 [3]: 3.3 µM
TGI [3]: 16.1 µM

COc1ccc(/C(=C2/O[C@@H]([C@H]3COC(C)(C)O3)[C@H]3OC(C)(C)O[C@@H]23)c2cc(OC)c(OC)c(OC)c2)cc1O
GI50 [1]: 24.2 µM
TGI [1]: > 100 µM
GI50 [10]: 37.5 µM
TGI [10]: > 100 µM
GI50 [5]: 10.9 µM
TGI [5]: 34.7 µM
GI50 [2]: 2.15 µM
TGI [2]: 5.54 µM
GI50 [11]: 37.4 µM
TGI [11]: > 100 µM
GI50 [3]: 9.71 µM
TGI [3]: 50.1 µM

CN(C)CC(=O)Nc1ccc(Cn2nnc3c2C(=O)c2nnn(Cc4ccc(NC(=O)CN(C)C)cc4)c2C3=O)cc1
GI50 [10]: 0.0473 µM
TGI [10]: 0.179 µM
GI50 [2]: 0.0708 µM
TGI [2]: 0.198 µM

CCOC(=O)CSc1nc(N)c2c(-c3ccc(OC)c(OC)c3)c3c(nc2n1)CCCC3
TGI [4]: > 100 µM
TGI [1]: > 100 µM
TGI [10]: > 100 µM
TGI [5]: > 100 µM
TGI [2]: > 100 µM
TGI [11]: > 100 µM
TGI [3]: > 100 µM

Cc1cccc2nc3c(C(=O)NCCN(C)C)cccc3cc12
TGI [6]: 3.57 µM
TGI [7]: 4.42 µM
TGI [8]: 6.64 µM
TGI [9]: 4.98 µM
TGI [10]: 7.46 µM
TGI [5]: 4.88 µM
TGI [11]: 7.06 µM
TGI [12]: 3.37 µM
TGI [13]: 12.6 µM

CCN(CC)CC(C)Nc1ccc([N+](=O)[O-])c2sc3ccccc3c(=O)c12 (stereo not given)
GI50 [10]: 3.48 µM
TGI [10]: > 100 µM
GI50 [5]: 2.28 µM
TGI [5]: 12.3 µM
GI50 [2]: 2.15 µM
TGI [2]: 8.33 µM
GI50 [11]: 2.79 µM
TGI [11]: 23.4 µM
GI50 [3]: 2.16 µM
TGI [3]: 9.09 µM

CNC(=O)OC(C)CN1c2ccccc2Sc2ccc(Cl)cc21 (stereo not given)
TGI [4]: > 10 µM
TGI [1]: > 10 µM
TGI [10]: > 10 µM
TGI [5]: > 10 µM
TGI [2]: > 10 µM
TGI [11]: > 10 µM
TGI [3]: > 10 µM

CCS(=O)(=O)Nc1ccc(Nc2c3ccccc3nc3ccccc23)c(OC)c1
TGI [6]: 1.85 µM
TGI [1]: 10.6 µM
TGI [7]: 16.6 µM
TGI [8]: 7.92 µM
TGI [9]: 6.44 µM
TGI [10]: 16.1 µM
TGI [5]: 1.21 µM
TGI [12]: 5.53 µM
TGI [13]: 18.4 µM
